Columns and labels:
Type in all cases: in vivo
[1] = test system: C. elegans (Bristol strain); test: Evaluation of test compounds against C. elegans (motility, 96-well plate); design: key: 9=complete kill in 4 hours; 8=complete kill in 24 hours; 7=markedly reduced motility in approximately 95% of worms in 24 hours; 0=normal motility, same as controls; conditions: motility at 4 and 24 hours
Outline: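 Bristol-strain C. elegans in Na buffer added to wells containing dried compound (applied in 80% acetone) and incubated at 20 °C. Motility of adults and larvae scored subjectively but semi-quantitatively under a dissecting microscope at 4 and 24 h after immersion, plates tapped before reading.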

[2] = test system: Spodoptera eridania, 2nd instar larvae, southern armyworm (SAW); test: Southern armyworm (SAW) leaf dip test; design: key: 0 = no effect; 1 = 10-25% kill; 2 = 26-35% kill; 3 = 36-45% kill; 4 = 46-55% kill; 5 = 56-65% kill; 6 = 66-75% kill; 7 = 76-85% kill; 8 = 86-99% kill; 9 = 100% kill
Outline: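 Compound is dissolved at 10,000 ppm in 35% acetone/water, then diluted with water. Lima bean leaves are dipped for 3 seconds, dried and placed with ten 2nd instar larvae on damp filter paper. Mortality, reduced feeding and molting interference are scored at 5 days.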

[3] = test system: Diabrotica virgifera virgifera Leconte, 2nd instar western corn rootworm (WCR); test: Western corn rootworm (WCR) soil test; design: key: 0 = no effect; 1 = 10-25% kill; 2 = 26-35% kill; 3 = 36-45% kill; 4 = 46-55% kill; 5 = 56-65% kill; 6 = 66-75% kill; 7 = 76-85% kill; 8 = 86-99% kill; 9 = 100% kill
Outline: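 Compound in 35% acetone/water applied to talc at 1.25 mg active ingredient per jar (about 50 kg/ha), solvent evaporated, then mixed with millet seed and moist soil. Ten 2nd-instar larvae per jar; mortality counted after 5 days, missing larvae scored dead.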

[4] = test system: Tetranychus urticae (OP-resistant strain), 2-spotted spider mite (TSM); test: 2-spotted spider mite (TSM) plant dip test; design: key: 0 = no effect; 1 = 10-25% kill; 2 = 26-35% kill; 3 = 36-45% kill; 4 = 46-55% kill; 5 = 56-65% kill; 6 = 66-75% kill; 7 = 76-85% kill; 8 = 86-99% kill; 9 = 100% kill; conditions: mortality after 2 days
Outline: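 OP-resistant mites (~100 per leaf) were transferred onto Sieva lima bean primary leaves about 2 h before treatment. Infested plants were dipped for 3 s in compound from a 10,000 ppm stock in 35% acetone/water, diluted with water. Mortality was counted after 2 days.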

[5] = test system: Aphis gossypii, cotton aphid (CA); test: Cotton aphid (CA) cotyledon dip test; design: key: 0 = no effect; 1 = 10-25% kill; 2 = 26-35% kill; 3 = 36-45% kill; 4 = 46-55% kill; 5 = 56-65% kill; 6 = 66-75% kill; 7 = 76-85% kill; 8 = 86-99% kill; 9 = 100% kill; conditions: mortality after 5 days
Outline: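 Cotyledon-stage cotton plants infested overnight via a heavily infested leaf, then dipped in test solution (compound in 35% acetone/water, diluted with water) and dried. Mortality counted after 5 days.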

[6] = test system: Spodoptera eridania, eggs-southern armyworm (SAW-Eggs); test: Southern armyworm eggs (SAW-Eggs) treated diet test; design: key: 0 = no effect; 1 = 10-25% kill; 2 = 26-35% kill; 3 = 36-45% kill; 4 = 46-55% kill; 5 = 56-65% kill; 6 = 66-75% kill; 7 = 76-85% kill; 8 = 86-99% kill; 9 = 100% kill; conditions: mortality after 7 days
Description: Test solutions are prepared by dissolving the test compound in a 35% acetone in water mixture to give a concentration of 10,000 ppm. Subsequent dilutions are made with water as needed. Spodoptera eridania, Eggs-southern Armyworm and Diabrotica undecimpunctata howardi, Eggs-southern Corn Rootworm (SAW-Eggs) and (SCR-Eggs) Wells containing artificial diet are treated with the test solutions and dried. The appropriate insect eggs are then placed in the wells. The wells are covered with vented, adhesive, clear plastic covers. After 7 days, mortality counts are made. [table]

[7] = test system: Diabrotica undecimpunctata howardi, eggs-southern corn rootworm (SCR-Eggs); test: Southern corn rootworm eggs (SCR-Eggs) treated diet test; design: key: 0 = no effect; 1 = 10-25% kill; 2 = 26-35% kill; 3 = 36-45% kill; 4 = 46-55% kill; 5 = 56-65% kill; 6 = 66-75% kill; 7 = 76-85% kill; 8 = 86-99% kill; 9 = 100% kill; conditions: mortality after 7 days
Outline: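 Compounds dissolved at 10,000 ppm in 35% acetone/water, diluted with water, applied to artificial diet in wells and dried. Southern corn rootworm or southern armyworm eggs placed on treated diet under vented covers; mortality counted after 7 days.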

[8] = test system: M. incognita (Root Knot Nematode) larvae; test: Evaluation of test compounds against M. incognita larvae in microtiter plate wells (movement score); conditions: larvae scored for movement after 20-24 hours; note: key: A score of '9' indicates inactive worms with a straight, sticklike morphology; A score of '8' indicates inactive worms with a limp, curled or curved morphology; A score of '7' indicates dead/paralyzed worms after 72 hours
Outline: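 Newly emerged M. incognita larvae in S Medium (buffered salt solution), 50-65 worms per well, exposed to test compounds in sealed microtiter wells. Movement scored after 20-24 h incubation; wells with obviously dead/paralyzed larvae scored positive. A score of "7" denotes dead/paralyzed worms after […].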

Structure (SMILES)	Rating Against C. elegans (150 ppm) [1]	SAW (300 ppm) rating [2]	WCR (50 ppm) rating [3]	TSM (300 ppm) rating [4]	CA (300 ppm) rating [5]	SAW Eggs (300 ppm) rating [6]	SCR Eggs (1000 ppm) rating [7]	M. incognita (150 ppm) score [8]
O=C(O)CSC(C[N+](=O)[O-])c1c(F)c(F)c(F)c(F)c1F (centres unmarked) [Example 139]	9	0	9 (9 = 100% kill)	0	0	0	0	
COC(=O)CSc1c(F)c(F)c(C(C[N+](=O)[O-])SCC(=O)OC)c(F)c1F (centres unmarked) [Example 141]	8	0	0	0	0	0	0	
O=[N+]([O-])CC(SCc1ccccc1)c1c(F)c(F)c(F)c(F)c1F (centres unmarked) [Example 148]	0	0	0	0	0	0	0	
O=[N+]([O-])CC(SCc1ccccc1)c1ccco1 (centres unmarked) [Example 203]	9	0	8 (8 = 86-99% kill)	0	0	9 (9 = 100% kill)	9 (9 = 100% kill)	
CCCCOC(=O)CSc1c(F)c(F)c(C(C[N+](=O)[O-])SCC(=O)OCCCC)c(F)c1F (centres unmarked) [Example 147]	0	0	0	0	0	0	0	
COc1cccc(C(C[N+](=O)[O-])SCc2ccco2)c1 (centres unmarked) [Example 158]	9	0	0	0	0	0	0	
CCCOC(=O)CSC(C[N+](=O)[O-])c1c(F)c(F)c(F)c(F)c1F (centres unmarked) [Example 144]	7	0	9 (9 = 100% kill)	0	0	0	0	
C=CCSC(C[N+](=O)[O-])c1cc(OC)cc(OC)c1 (centres unmarked) [Example 3]	0					0	0	
CCCCOC(=O)CSC(C[N+](=O)[O-])c1ccco1 (centres unmarked) [Example 200]		0	4 (4 = 46-55% kill)	0	0	9 (9 = 100% kill)	0	9
COC(=O)CSC(C[N+](=O)[O-])c1c(F)c(F)c(F)c(F)c1F (centres unmarked) [Example 140]	8	6 (6 = 66-75% kill)	9 (9 = 100% kill)	0	0	0	0	
CCCOC(=O)CSC(C[N+](=O)[O-])c1cccs1 (centres unmarked) [Example 189]		0	0	0	0	0	0	9
CCCSC(C[N+](=O)[O-])c1cccs1 (centres unmarked) [Example 186]		4 (4 = 46-55% kill)	4 (4 = 46-55% kill)	0	0	0	0	0
O=[N+]([O-])CC(SCc1ccccc1)c1c(F)c(F)c(SCc2ccccc2)c(F)c1F (centres unmarked) [Example 149]	0	0	0	0	0	0	0	
CCOC(=O)CSC(C[N+](=O)[O-])c1c(F)c(F)c(F)c(F)c1F (centres unmarked) [Example 142]	8	0	9 (9 = 100% kill)	0	4 (4 = 46-55% kill)	0	0	
CCCCOC(=O)CSC(C[N+](=O)[O-])c1cccs1 (centres unmarked) [Example 184]		0	0	0	0	9 (9 = 100% kill)	0	9
CCCOC(=O)CSc1c(F)c(F)c(C(C[N+](=O)[O-])SCC(=O)OCCC)c(F)c1F (centres unmarked) [Example 145]	0	0	0	0	0	0	0	
CCOC(=O)CSc1c(F)c(F)c(C(C[N+](=O)[O-])SCC(=O)OCC)c(F)c1F (centres unmarked) [Example 143]	0	0	0	0	0	0	0	
COC(=O)CSC(C[N+](=O)[O-])c1cccc([N+](=O)[O-])c1 (centres unmarked) [Example 138]		0	0	0	0	0	0	0
COC(=O)CSC(C[N+](=O)[O-])c1cccs1 (centres unmarked) [Example 182]		0	0	0	0	0	0	9
O=C(CSC(C[N+](=O)[O-])c1cccs1)OCc1ccccc1 (centres unmarked) [Example 185]		0	0	0	0	0	0	9
CCCCOC(=O)CSC(C[N+](=O)[O-])c1c(F)c(F)c(F)c(F)c1F (centres unmarked) [Example 146]	7	0	8 (8 = 86-99% kill)	0	0	0	0	

Source: US6358883B1, “Pesticidal and parasiticidal use of 1-aryl-1-(substituted thio, sulfinyl and sulfonyl)-2-nitroethane compounds” (American Cyanamid Company, priority 1998, dated 2002)
